Experimental data published in patent US7935726B1, “Tricyclic pyrones” (Kansas State University Research Foundation, priority 1999, dated 2011).
Where two headings read alike, the source gives them in different places.

Columns and labels:
[1] = system: N/N 1003 lens epithelial cells; assay: tissue culture assay: galactitol formation from galactose in lens epithelial cells (GC/MS); assay type: cell-based; details: for IC50 / inhibition at 10 µM: Epithelial cell; for inhibition at 10 µM: 10 uM inhibitor, 40 mM galactose media, lens epithelial cells, number of trials in parenthesis
Experimental: The activity of the drugs is tested in various ways, including tissue culture assays and assays testing aldose reductase inhibition. For the tissue culture assay, a lens epithelial cell line is grown in galactose with or without the drug. Cells are tested for polyol accumulation by GC/mass spectrometry. Levels of PKC are tested in homogenized cell pellets or in samples of lens, retina or sciatic nerves from treated patients. Tissue is homogenized and tested for PKCγ levels using Western blots. These procedures are described in more detail below.
The ability of the drugs to inhibit galactitol formation from galactose was also studied in N/N 1003 lens epithelial cells. Two sets of lens cells were grown in media with […] 40 mM galactose. Various concentrations of inhibitors were added initially and the cells were grown for 48 hours. The cells were lysed and galactose and galactitol were extracted out and the concentrations were determined using gas chromatography and mass spectrometry by silylating the crude extract with excess of trimethylsilyl chloride, trimethylsilyl imidazole and pyridine at 70° C. for 1 h.
40 mM galactose media was supplemented with 10 uM inhibitor and fed to lens epithelial cells for 48 hours.

PKC-γ [2] = assay: galactose-fed rats: PKC-γ levels in lens and sciatic nerve (Western blot); assay type: in vivo, Sprague Dawley Rats; details: 100 mg/Kg body weight per day; for PKC-γ levels in sciatic nerve cells: high galactose feed, FIG. 3B
Experimental: In order to test for in vivo effects of ARI's, rats were fed a 40% galactose diet for 9 days and the accumulation of galactitol was measured in lens tissue. This tissue has high aldose reductase activity and the eye has a separate vasculature. Thus, if the ARI works in the lens this is a good indication that the drug works and can penetrate to most tissues.
The specific experimental details follow. […] The rats were given food supplemented with inhibitor in the morning and then given food and water ad libitum the rest of the day. They were kept on a 12-hour on and 12-hour off light cycle. After 9 days, the rats were sacrificed with an overdose of CO2 and then eyes were taken and immediately frozen on dry ice for later polyol and PKC analyses. Experiments on all rats conformed to the ARVO resolution on the Use of Animals in Research.
The lenses were removed from the enucleated eyes and weighed. They were put in 200 μL lysis buffer (50 mM Tris, 100 mM NaCl, M-Per Pierre Zwitterionic detergent, 5 mM NaF, 1 mM Na3VO4, 40 mM β-glycerophosphate, 6 μg/mL chymotrypsin, 10 μM3,4-dichlorocoumarin, 10 μM E-64, 1 μg/mL leupeptin, 1 μg/mL pepstatin A, 1 μg/mL aprotinin, 1 mM PMSF, and 5 mM EDTA (Sigma). The lenses were then ground using a tissue grinder until they were a uniformly white solution. They were then sonicated to make certain all the cells were disrupted. The mixture was then centrifuged for 20 minutes at 0° C. at […]. The supernatant was then analyzed for protein content using […] (Pierce). Equal amounts of protein were loaded and separated on a 10% SDS polyacrylamide gel. The proteins were transferred to nitrocellulose (Midwest Scientific; pore size 0.45 μm). The western was blocked with a 3% milk solution, and then mouse anti-PKC γ (1:5000) or PKC α (1:1000) antisera (Transgenic Laboratories) were applied in a 3% milk solution overnight. […]
The effects of streptozotocin induced diabetes on PKC-γ levels in rat lens have been measured. […]

L1210 tumor cells = assay: cytotoxicity to L1210 tumor cells; assay type: cell-based
From the text: (§1) The reported procedures for the inhibitory activities of ACAT (Tomoda, H.; Nishida, H.; Masuma, R.; Cao, J.; Okuda, S.; Omura, S. J. Antibiot. 1991, 44, 136-143), CETP (Tomoda, H.; Tabata, N.; Masuma, R.; Si, S.-Y.; Omura, S. J. Antibiot. 1998, 51, 618-623; D. H. Hua et al. Tetrahedron 2003, 59, 4795-4803), L1210 tumor cells (Perchellet, E. M.; Ladesich, J. B.; Magill, M. J.; Chen, Y.; Hua, D. H.; Perchellet, J. P. Anti-Cancer Drugs 1999, 10, 489-504), and APP C99-induced cell death (Jin, L.-W.; Hua, D. H.; Shie, F.-S.; Maezawa, I.; Sopher, B.; Martin, G. M. J. Mol. Neurosci. 2002, 19, 57-61) were followed.

MC65 cells = assay: protection from APP C99-induced cell death in MC65 cells; assay type: cell-based
From the text: as §1, with “followed. […]” for “followed.”

[3] = molecular target: T1, Human aldose reductase (AR) (Homo sapiens, UniProt P15121); assay: human AR inhibition assay (enzyme assay, NADPH absorption at 340 nm); assay type: biochemical; details: Table 3; average of three assays; read-out: IC50, Inhibition of Human Retina Aldose Reductase
T1 construct: made in house; host or cells: E. coli
Experimental: Human aldose reductase (AR) was obtained from overexpression of the human AR gene in an E coli system and was purified by column chromatography using a talon metal affinity column and eluted with a gradient mixture of Tris, NaCl buffer and imidazole solution. The human AR inhibition assay was conducted as follows. In a sample cuvette, 25 mM of D-xylose (75 mg/mL) and 0.15 mM of reduced nicotinamide adenine dinucleotide phosphate (NADPH) (4 mg/mL), and various amount of the inhibitor [in PBS (phosphate buffer saline) solution; the concentration of the inhibitor was determined using UV spectroscopy based on εmax at λmax of the drug] in 700 uL of PBS (a solution made of 1.44 g of Na2HPO4, 0.24 g KH2PO4, 0.2 g KCl, and 8 g NaCl in 1 L of distilled water) buffer (pH=6.1) solution and 200 uL of the AR enzyme (a final volume of 1 mL was obtained). The intensity of absorption of NADPH (λmax=340 nm) was measured. When xylose is reduced to xylitol, NADPH is converted into NADP and the absorption at 340 nm decreases. When AR is inhibited by the drug, the absorption at 340 nm of NADPH remains unchanged. Each assay was repeated three times and an average IC50 value was obtained.

[4] = system: bovine lens epithelial cells; assay: toxicity in bovine lens epithelial cells; assay type: cell-based; details: up to 100 uM added to bovine lens epithelial cells
[5] = pathology studies in treated rats; assay type: in vivo; details: 100 mg/Kg body weight per day, 9 days
[6] = canine study: polyol level in dog lens (GC/MS); assay type: in vivo, Beagle dogs
Experimental: (§2) A pilot study was conducted to determine initial toxicity and efficacy in a Beagle model. The study was conducted at the fully accredited facility at the Kansas State University Veterinary Clinic. The dogs were fed a 40% galactose diet for 6 weeks. These dogs developed cataracts. Compound 1 was administered orally at 100 mg/kg body weight/day for 6 weeks. At this dose, the polyol levels were 50% normalized (FIG. 4) and PKCγ levels were 80% normalized (FIG. 5). […] The PkC-γ levels of dogs treated with galactose is 30.8%, G+I is 84.1% and C+I is 79.7%. Additional testing at higher doses is planned to determine optimal dose for efficacy with no or low toxicity. These experiments are well within the skill and experience of one of ordinary skill in the art and can be performed without undue experimentation.

PKC-γ [7] = assay: canine study: PKC-γ level of dog lens (Western blot); assay type: in vivo, Beagle dogs
Experimental: as §2

[8] = Galactosemic dogs, with inhibitor
[9] = dogs, 40% galactose diet 6 weeks, orally 100 mg/kg body weight/day for 6 weeks

In the case of `COc1ccc2c(C(=S)N(C)CC(=O)O)cccc2c1C(F)(F)F` [Tolrestat, reference compound], the “% galactitol” value ([1]; 0.5 uM Tolrestat, 40 mM galactose, 48 hours) is reported as 100%, the “% galactitol” value ([1]; 1 uM Tolrestat, 40 mM galactose, 48 hours) is reported as 90% and the “% galactitol” value ([1]; 7 uM Tolrestat, 40 mM galactose, 48 hours) is reported as 53%. The IC50 [1] was 8 µM, the inhibition at 10 µM ([1]; 48 hours) was 95 ± 4% and the “PKC-γ levels in lens epithelial cells” value (PKC-γ [2]; 40% galactose feed 9 days, FIG. 2, FIG. 3A) was “remained near normal”. The “PKC-γ levels in sciatic nerve cells” value (PKC-γ [2]) was “normalized” and the water solubility (water solubility) was “insoluble in water”.
With `Cc1cc2c(c(=O)o1)C=C1CC[C@@H](CC(C)n3cnc4c(N)ncnc43)C[C@@H]1O2` (mixture of isomers) [Compound 105, (5aS,7S)-7-[(1R) and (1S)-2-(N-9-Adenyl)-1-methylethyl]-3-methyl-1H,7H-5a,6,8,9-tetrahydro-1-oxopyrano[4,3-b][1]benzopyran] the IC50 (L1210 tumor cells; read-out: IC50, cytotoxic to L1210 tumor cells) was 30 µM, the “fold less active than 106 (EC50)” value (MC65 cells; MC65 cells) was 20 fold and the EC50 (MC65 cells; MC65 cells in the absence of tetracycline) was 3000 nM.
For `O=C(O)Cc1cc2c(c(=O)o1)C=C1CCCCC1O2` (centres unmarked) [Compound 1, {1H,7H-5a,6,8,9-Tetrahydro-1-oxopyrano[4,3-b][1]benzopyran-3-yl}acetic acid], the IC50 [3] was 2 nM, the toxicity [4] was “no toxicity was found” and the “% galactitol” value ([1]; 1 uM compound 1, 40 mM galactose, 48 hours) was 80%. The “% galactitol” value ([1]; 10 uM compound 1, 40 mM galactose, 48 hours) was 30%, the “concentration of galactitol relative to galactose (GC/MS, FIG. 1B)” value ([1]; 10 uM, 40 mM galactose, 48 hours) was “decreases the concentration of galactitol relative to galactose” and the IC50 [1] was 6 µM. The inhibition at 10 µM ([1]; 48 hours) was 80 ± 10%, the “PKC-γ levels in sciatic nerve cells” value (PKC-γ [2]) was “normalized” and the “toxicity to the rats (pathology studies)” value [5] was “not toxic to the rats”. For the same compound, the “Galactitol (polyol) (GC/MS, dog lens)” value [6, 8] was 27.3%, the “Galactose (GC/MS, dog lens)” value [6, 8] was 72.7% and the polyol levels normalized [6, 9] was 50%. For the same compound, the “PKC-γ level of dog lens (read-out of intensities, FIG. 5)” value (PKC-γ [7]; control with inhibitor 1 (C+I)) was 79.7%, the PKCγ levels normalized (PKC-γ [7]; [9]) was 80% and the “PKC-γ level of dog lens (read-out of intensities, FIG. 5)” value (PKC-γ [7]; galactose and inhibitor 1 (G+I)) was 84.1%. The water solubility (water solubility) was “water soluble”.
In the case of `O=C(O)C(O)Cc1cc2c(c(=O)o1)C(O)C1CCCCC1O2` (centres unmarked) [Compound 2, 2-Hydroxy-3-{1H,7H-5a,6,8,9,10,11-hexahydro-10-hydroxy-1-oxopyrano[4,3-b][1]benzopyran-3-yl}-propanoic acid], the IC50 [3] is reported as 20 nM, the toxicity [4] is reported as “no toxicity was found” and the inhibition at 10 µM ([1]; 48 hours) is reported as < 10%. For the same compound, the water solubility (water solubility) was “water soluble”.
For `CC(=O)OCC1(C)C(OC(C)=O)CCC2(C)C1CC(OC(C)=O)C1(C)Oc3cc(-c4cccnc4)oc(=O)c3C(O)C21` (centres unmarked) [Pyripyropene A, reference compound], the IC50 (L1210 tumor cells; Mus musculus, L1210, Table 9, read-out: C50, L1210 Leukemic Cells) was > 100 µM.
